According to PMC7093416, “Selective USP7 inhibition elicits cancer cell killing through a p53-dependent mechanism” (Scientific Reports, 2020):
Where two headings read alike, the source gives them in different places.

Legend:
TC32 cells = assay: Cell viability (CellTiter-Glo) in TC32 cells expressing sgRNA (TP53-KO vs control); format: cell-based; conditions: 3 days, Cell Titer Glo
Procedure: (§1) Cells were plated in 384-well culture-treated plates and allowed to settle overnight. After drug treament and appropriate incubation time, cell viability was assessed using the CellTiter-Glo Luminescent Cell Viability Assay (Promega). Luminescence was read on a Fluostar Omega Reader (BMG Labtech).

[1] = test system: Ewing Sarcoma, AML, multiple myeloma and rhabdoid cell lines; assay: Cell viability (CellTiter-Glo) in individual cell line panels; format: cell-based; conditions: Ewing Sarcoma lines and TC32 cells, 3 days
Procedure: as §1

full-length USP7 [2] = biological target: T1, full-length USP7 (Homo sapiens, UniProt Q93009); assay: Ub-AMC enzymatic assay, full-length USP7, 6 h pre-incubation; format: biochemical; conditions: for IC50: Ub-AMC, read-out: IC50
T1 construct: The constructs encoding USP7 full length (amino acids 1–1102) and catalytic domain (208–560); inferred from Ni-NTA purification; made in house; host or cells: E. coli BL21 (DE3)
Procedure: Full length USP7 was tested for its activity in Ubiquitin-AMC assay in presence or absence of inhibitors. USP7 (5 nM) was pre-incubated for 6 hours at room temperature with different concentrations of inhibitors or DMSO as a control in 50 mM HEPES pH 7.5, 0.5 mM EDTA, 11 uM ovalbumin, and 5 mM DTT. Ubiquitin-AMC (Boston Biochem) was then added to a final concentration of 500 nM. The initial rate of the reaction was measured by collecting fluorescence data at one minute intervals over 30-minute period using a Clariostar fluorescence plate reader at excitation and emission wavelength of 345 and 445 nm respectively. The calculated initial rate values were plotted against inhibitor concentrations to determine IC50s. All the experimental data were plotted using Prism GraphPad. All assays for each compound were performed at least twice for each compound.

full-length USP7 [3] = biological target: T1, full-length USP7; assay: Ub-AMC time course assay for kinact / KI; format: biochemical
Procedure: To calculate the ki and kianct values for XL-9678-041, the procedure above was used, but different concentrations of inhibitor were incubated with USP7 for different time points (5 min - 3 hours) before adding Ubiquitin-AMC. To determine kobs, the time course curves were fit to the equation y = ymax(1 − exp(−kobs⋅x)). The kobs values were then plotted against the inhibitor concentrations and fit to the equation y = kinact/(1 + (ki/x)) to obtain the values for ki and kianct.
Supplementary Figure Captions
Figure S1: Full-length recombinant purified USP7 was pre-incubated with XL041 at the indicated concentrations for the indicated times, then Ub-AMC was added and fluorescence was monitored. Graphpad Prism software was used to calculate initial reaction velocity and derive KI / kinact values (bottom panel).
Figure S2: Mass spectra (left) and zero-charge mass spectra (right) of WT USP7 catalytic domain incubated for 4 hours with DMSO (top) or 2.5-fold molar excess XL058 (bottom). […]
Figure S5: MCF7 cells were transfected with the indicated pcDNA constructs for 48 hours, then treated with XL177A at the indicated concentration for 3 hours. Cells were lysed, and FLAG-USP7 target engagement was assessed with the DUB ABP HA-Ub-VS. Densitometry was performed using ImageStudio software and analyzed using Graphpad Prism. […]

USP7 catalytic domain = biological target: T2, USP7 catalytic domain (Homo sapiens, UniProt Q93009); assay: Intact MS / CE-MS labeling of purified USP7 catalytic domain; format: binding; conditions: 2.5-fold molar excess compound
T2 construct: catalytic domain (208–560) used were cloned as described; inferred from Ni-NTA purification; made in house; host or cells: E. coli BL21 (DE3)
Procedure: Purified USP7 catalytic domain was diluted to 20 μM in 10 μL labeling buffer (20 mM HEPES pH 7.5, 150 mM NaCl, 1 mM TCEP) and incubated for the indicated times with 50 μM (2.5×) compound. After incubation, samples were flash frozen in liquid nitrogen and stored at −80 °C until analysis.
Intact mass analysis was performed by injecting 5 µg USP7 catalytic domain onto a self-packed reversed phase column (1/32” O.D. × 500 um I.D., 5 cm of POROS 10R2 resin). After desalting, protein was eluted with an HPLC gradient (0–100% B in 4 minutes, A = 0.2 M acetic acid in water, B = 0.2 M acetic acid in acetonitrile, flow rate ~30 µL/min) into an LTQ ion trap mass spectrometer (ThermoFisher Scientific, San Jose, CA). Mass spectra were processed using MagTran1.03b2[52].
Peptides were desalted using SP3[53], dried by vacuum centrifugation, and reconstituted in 1% formic acid/50% acetonitrile with 100 mM ammonium acetate. Peptides were then analyzed by CE-MS using a ZipChip CE system and autosampler (908 Devices, Boston, MA) interfaced to a QExactive HF mass spectrometer (ThermoFisher Scientific, San Jose, CA). Peptide solution was loaded for 30 seconds, and the mass spectrometer was operated in data dependent mode and subjected the 5 most abundant ions in each MS scan (60k resolution, 3E6 target, lock mass enabled) to MS/MS (15k resolution, 1E5 target, 100 ms max inject time). […]

MCF7 cells = assay: 3' DGE RNA-seq transcriptional profiling; format: cell-based; set-up: log2FoldChange: concentration or dose not given beside the values; conditions: gene ABCA12; concentration 1
Procedure: The DGE RNA sequencing was performed following the published method[39],[40] with modifications as described below. MCF7 cells were seeded in a 384 well plate at 2500 cells per well, allowed to adhere for 24 hours, then treated with two doses in triplicate of XL177A, XL177B, Nutlin-3, or DMSO. After 24 hours of treatment, an EL405x plate washer (BioTek) was used to aspirate the media and wash once with PBS. Cells were lysed in the plate with 10 µl of lysis buffer (1x Qiagen TCL, 1% BME) for 5 minutes at room temperature, then stored at −80 °C. Automated liquid handling was performed with assistance from ICCB-Longwood Screening Facility. A BRAVO Automated Liquid Handling Platform (Agilent) was used for RNA extraction as follows. The lysate was mixed and 10 µl was transferred to a 384 well PCR plate. 28 µl of homemade SPRI[66] (solid-phase reversible immobilization) beads were added to the lysate and mixed. After 5 minutes, the beads were pulled down by placing the plate on a magnet, then the beads were washed twice with 80% ethanol. Beads were air dried for 1 minute, then 20 µl of nuclease free water was added, the plate was removed from the magnet, and the beads were resuspended. After 5 minutes, the plate was placed back on the magnet to pull down the beads. The supernatant was transferred to a fresh 384 well plate. RNA quantity was checked with the Qubit Fluorometer and RNA quality was assessed using the Agilent BioAnalyzer RNA 6000 Pico Kit. The BRAVO platform was again used to transfer 5 µl of supernatant was transferred to a fresh 384 well plate with RT master mix and 1 µl of barcoded E3V6NEXT adapters for reverse transcription and template switching. The plate was incubated for 90 minutes at 42 °C, then cDNA was pooled, purified with the QIAquick PCR purification kit. The full-length cDNA was treated with Exonuclease I to remove excess primers for 30 minutes at 37 °C then amplified x5 cycles with Advantage 2 PCR Enzyme System using the SINGV6 primer. The amplified full-length cDNA was purified with Agencourt AMPure XP magnetic beads and quantitated by Qubit Fluorometer. The sequencing library was prepared using the Nextera DNA kit following the manufacturer’s instructions. Briefly, 55 ng of cDNA was tagmented for 5 minutes at 55 °C then purified using Zymo DNA Clean & Concetrator-5 column, then amplified x7 cycles and purified using a 0.9x ratio of AMPure XP magnetic beads. The library size distribution was assessed by Agilent BioAnalyzer HS DNA Kit before it was quantified by qPCR and sequenced on an Illumina NextSeq at the Biopolymers Facility at Harvard Medical School.
The bcbio-nextgen single cell RNA-seq analysis pipeline (https://bcbio-nextgen.readthedocs.io/en/latest/) was used to deconvolve the well barcodes and convert reads to counts. Any detected barcode that differed by more than one base from an expected barcode was removed. Unique reads were identified using unique molecular identifiers (UMIs) in order to remove PCR duplicates. The reads remaining after these filters were aligned to the transcriptome (GRCh38) using RapMap[67]. The R package DESeq. 2 version 1.20.0 (R version 3.5.1) was used for differential expression analysis.

T1 sequence (Q93009 whole entry, the tested form may be a part): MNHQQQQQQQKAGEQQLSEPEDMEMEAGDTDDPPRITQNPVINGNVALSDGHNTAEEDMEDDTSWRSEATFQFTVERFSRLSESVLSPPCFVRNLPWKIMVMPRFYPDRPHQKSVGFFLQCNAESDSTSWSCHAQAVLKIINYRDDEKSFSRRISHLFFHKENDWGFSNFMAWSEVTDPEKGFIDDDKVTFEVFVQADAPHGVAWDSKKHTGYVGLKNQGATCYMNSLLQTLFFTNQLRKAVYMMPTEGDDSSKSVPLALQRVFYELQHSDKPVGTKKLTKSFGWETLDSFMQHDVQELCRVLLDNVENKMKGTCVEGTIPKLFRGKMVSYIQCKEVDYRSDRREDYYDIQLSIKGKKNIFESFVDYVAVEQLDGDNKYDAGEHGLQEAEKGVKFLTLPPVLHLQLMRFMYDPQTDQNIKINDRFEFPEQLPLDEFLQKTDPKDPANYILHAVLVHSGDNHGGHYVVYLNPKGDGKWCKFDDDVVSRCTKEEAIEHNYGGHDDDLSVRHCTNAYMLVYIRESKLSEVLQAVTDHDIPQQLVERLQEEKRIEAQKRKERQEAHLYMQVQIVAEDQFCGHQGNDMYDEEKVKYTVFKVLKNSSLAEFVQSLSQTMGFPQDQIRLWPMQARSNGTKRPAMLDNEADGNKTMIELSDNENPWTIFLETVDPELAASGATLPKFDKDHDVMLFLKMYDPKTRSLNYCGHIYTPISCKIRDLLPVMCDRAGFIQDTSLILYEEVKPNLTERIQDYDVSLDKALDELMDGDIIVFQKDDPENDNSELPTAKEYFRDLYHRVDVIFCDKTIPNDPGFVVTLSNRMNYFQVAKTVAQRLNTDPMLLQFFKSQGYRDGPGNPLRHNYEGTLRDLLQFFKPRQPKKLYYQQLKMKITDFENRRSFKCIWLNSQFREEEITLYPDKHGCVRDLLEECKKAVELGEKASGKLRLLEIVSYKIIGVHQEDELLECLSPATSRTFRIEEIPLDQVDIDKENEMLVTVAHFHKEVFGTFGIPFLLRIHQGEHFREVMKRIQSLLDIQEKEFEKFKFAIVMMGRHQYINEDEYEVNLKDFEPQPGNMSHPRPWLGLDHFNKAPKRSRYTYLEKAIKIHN
T2 sequence (Q93009 208-560): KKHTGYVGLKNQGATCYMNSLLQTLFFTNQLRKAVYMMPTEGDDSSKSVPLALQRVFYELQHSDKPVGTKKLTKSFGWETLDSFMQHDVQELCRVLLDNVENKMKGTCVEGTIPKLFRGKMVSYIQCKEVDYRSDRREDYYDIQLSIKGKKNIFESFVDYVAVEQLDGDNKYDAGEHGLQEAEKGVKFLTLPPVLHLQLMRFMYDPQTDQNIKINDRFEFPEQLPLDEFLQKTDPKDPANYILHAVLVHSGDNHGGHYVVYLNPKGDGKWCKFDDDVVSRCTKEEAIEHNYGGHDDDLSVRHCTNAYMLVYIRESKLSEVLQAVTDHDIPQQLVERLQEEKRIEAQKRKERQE

SMILES: CCc1c(-c2ccc3[nH]ncc3c2)cnc(N)c1-c1ccc(O)cc1 [GNE-6640]
- differential response in TC32 TP53 knock out cells (TC32 cells): no differential
- selectivity for TP53-WT versus TP53-mutant or TP53-KO cells [1]: showed little selectivity
- selectivity for TP53-WT versus TP53-mutant or TP53-KO cells ([1]; listed as SB1_F_057): no differential response

SMILES: CN1CCN(CCC(=O)Nc2ccc3c(=O)n(CC4CCN(C(=O)C(CCCNC(=O)c5ccc6c(Cl)c7c(nc6c5)CCCC7)Cc5ccccc5)CC4)cnc3c2)CC1 (centres unmarked) [XL024]
- less potent than XL058 (full-length USP7 [2]): ~ 10 fold
- less potent than XL112 (full-length USP7 [2]): ~ 1,000 fold
- IC50 (full-length USP7 [2]; Table S1): 8130 nM
- IC50 (full-length USP7 [2]): 8000 nM

SMILES: CN1CCN(CCC(=O)Nc2ccc3c(=O)n(CC4(O)CCN(C(=O)CCCCNC(=O)c5ccc6c(Cl)c7c(nc6c5)CCCC7)CC4)cnc3c2)CC1 [XL041]
- mode of inhibition (full-length USP7 [3]): irreversible mode of inhibition
- kinact (full-length USP7 [3]; pre-incubation 5 min - 3 hours): 0.00373 s⁻¹
- IC50 (full-length USP7 [2]; Table S1): 152 nM

SMILES: CN1CCN(CCC(=O)Nc2ccc3c(=O)n(CC4(O)CCN(C(=O)C(CCCNC(=O)c5ccc6cc7c(nc6c5)CCCC7)Cc5ccccc5)CC4)cnc3c2)CC1 (centres unmarked) [XL058]
- labeling of USP7 catalytic domain by MS (USP7 catalytic domain): unable to label
- IC50 (full-length USP7 [2]): 904 nM

SMILES: CN1CCN(CCC(=O)Nc2ccc3c(=O)n(CC4(O)CCN(C(=O)C(CCCNC(=O)c5ccc6c(Cl)c7c(nc6c5)CCCC7)Cc5ccccc5)CC4)cnc3c2)CC1 (centres unmarked) [XL112]
- IC50 (full-length USP7 [2]): 5.9 nM

SMILES: COc1ccc(C2=N[C@@H](c3ccc(Cl)cc3)[C@@H](c3ccc(Cl)cc3)N2C(=O)N2CCNC(=O)C2)c(OC(C)C)c1 [nutlin3a]
- log2FoldChange (MCF7 cells): 0.9473
